Consider four compounds from US20060211760A1, “Indolamide derivatives which possess glycogen phosphorylase inhibitory activity” (AstraZeneca AB, priority 2003, published 2006).

The structures appear in SMILES notation.

For one experiment, the system named is db/db and ob/ob mice. The following applies: db/db and ob/ob mice following treatment; cited from earlier work.
Another experiment deals with hepatocytes. The settings on record: cited from earlier work.
Experiment [1] addresses T1, Human recombinant liver glycogen phosphorylase a (hrl GPa) (Homo sapiens, UniProt P06737).
T1 sequence (P06737 1-847): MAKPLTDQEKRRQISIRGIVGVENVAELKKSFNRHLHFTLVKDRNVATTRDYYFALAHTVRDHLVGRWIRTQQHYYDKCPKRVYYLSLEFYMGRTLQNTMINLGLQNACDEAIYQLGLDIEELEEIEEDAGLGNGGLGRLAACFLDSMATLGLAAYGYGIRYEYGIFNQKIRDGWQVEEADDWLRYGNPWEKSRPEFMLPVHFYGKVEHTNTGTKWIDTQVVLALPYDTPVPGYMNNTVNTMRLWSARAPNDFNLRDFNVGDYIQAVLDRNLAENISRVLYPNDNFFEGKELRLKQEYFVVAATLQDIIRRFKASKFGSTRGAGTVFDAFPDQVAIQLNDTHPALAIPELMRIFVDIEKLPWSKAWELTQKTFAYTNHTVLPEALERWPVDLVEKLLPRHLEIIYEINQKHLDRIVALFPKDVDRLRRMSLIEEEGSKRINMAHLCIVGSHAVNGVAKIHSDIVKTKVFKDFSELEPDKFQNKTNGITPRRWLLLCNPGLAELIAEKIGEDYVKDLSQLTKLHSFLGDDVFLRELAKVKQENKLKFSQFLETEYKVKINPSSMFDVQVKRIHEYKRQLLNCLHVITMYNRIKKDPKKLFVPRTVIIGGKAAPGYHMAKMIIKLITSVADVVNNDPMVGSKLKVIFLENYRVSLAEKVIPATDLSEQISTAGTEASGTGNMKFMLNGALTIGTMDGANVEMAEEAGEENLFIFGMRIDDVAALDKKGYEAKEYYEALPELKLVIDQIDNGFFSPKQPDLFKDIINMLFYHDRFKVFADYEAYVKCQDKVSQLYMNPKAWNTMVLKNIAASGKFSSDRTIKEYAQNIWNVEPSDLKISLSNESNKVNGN
Put plainly: glycogen phosphorylase inhibition, multienzyme coupled assay of glucose-1-phosphate production from glycogen. Format: biochemical. The settings on record: hrl GPa 20 nM, 6 hours at 30° C., 1% DMSO. As to the method: The activity of the compounds is determined by measuring the inhibitory effect of the compounds on glycogen degradation, the production of glucose-1-phosphate from glycogen is monitored by the multienzyme coupled assay, as described in EP 0 846 464 A2, general method of Pesce et al (Pesce, M A, Bodourian, S H, Harris, R C, and Nicholson, J F (1977) Clinical Chemistry 23, […]). The reactions were in 384well microplate format in a volume of 50 μl. The change in fluorescence due to the conversion of the co-factor NAD to NADH is measured at 340 nm excitation, 465nm emission in a Tecan Ultra Multifunctional Microplate Reader. The reaction is in 50 mM HEPES, 3.5 mM KH2PO4, 2.5 mM MgCl2, 2.5 mM ethylene glycol-bis(b-aminoethyl ether) N,N,N′,N′-tetraacetic acid, 100 mM KCl, 8 mM D-(+)-glucose pH7.2, containing 0.5 mM dithiothreitol, the assay buffer solution. Human recombinant liver glycogen phosphorylase a (hrl GPa) 20 nM is pre-incubated in assay buffer solution with 6.25 mM NAD, 1.25 mg type m glycogen at 1.25 mg ml^−1 the reagent buffer, for 30 minutes. […] The non-inhibited activity of GPa is measured in the presence of 10 μl 5% DMSO in assay buffer solution and maximum inhibition measured in the presence of 5 mgs ml^−1 N-ethylmaleimide. […] Relative Fluoresence Units (RFUs) are measured at 340 nm excitation, 465 nm emission. […]

The next experiment relates to conscious dogs. The following applies: following a glucagon challenge; cited from earlier work.

Turning to `CN(C)C(=O)[C@H](O)[C@H](Cc1ccccc1)NC(=O)c1cc2cc(Cl)ccc2[nH]1` [CP91149], the plasma glucose concentration result in the experiment with db/db and ob/ob mice is listed as “reduced, in a dose related manner”. In addition, in the experiment on hepatocytes, the glucagon stimulated glycogenolysis result is listed as “reduce” and the glucose output entry is “reduce”.

With `O=C(N[C@@H](Cc1ccc(F)cc1)C(=O)N1CCC(O)CC1)c1cc2cc(Cl)ccc2[nH]1` [CP320626], the plasma glucose concentration entry in the experiment on db/db and ob/ob mice is “reduced, in a dose related manner”. In the experiment with hepatocytes, the glucagon stimulated glycogenolysis entry is recorded as “reduce” and the glucose output entry is “reduce”.

Turning to `O=C(N[C@@H]1Cc2ccccc2[C@H]1CO)c1cc2cc(Cl)ccc2[nH]1` [Example 2, 5-Chloro-N-[(1R,2R)-1-(hydroxymethyl)-2,3-dihydro-1H-inden-2-yl]-indole-2-carboxamide], the IC50 in experiment [1] amounted to 868 nM.

`CCN1C(C)=C(C(=O)OC(C)C)C(c2ccccc2Cl)C2=C1COC2=O` (stereo not drawn) [Bay R 3401]: in the experiment with conscious dogs, the arterial plasma glucose entry is “reduced significantly” and the hepatic glucose output result is “reduced significantly”.
